Assay results published in ChEMBL document CHEMBL3301555, “MMV Malaria Box screening in pLDH viability assay against Plasmodium falciparum gametocytes”.

test system: Plasmodium falciparum; assay: MMV: Measure of pLDH activity as indication of parasite viability. Gametocytogenesis of 3D7 Plasmodium falciparum strain was induced in vitro and asexual parasites were depleted with N-acetylglucosamine. Gametocytes were treated with dihydroartemisinin, epoxomicin, methylene blue, primaquine, puromycin or chloroquine in 96-well plates and the pLDH activity was evaluated using a modified Makler protocol. Mosquito infectivity was measured by the standard membrane feeding assay.; format: functional; parameters: concentration or dose not given beside the values

SMILES	Growth Inhibition [%]
c1ccc(/C2=N/c3ccccc3/N=C(/c3ccccc3)c3ccccc32)cc1	14.1312
CCOC(=O)c1c(C)n(-c2ccccc2)c2ccc(OC(=O)c3cc(OC)c(OC)c(OC)c3)cc12	-1.486
COc1ccc(C2c3ccc4ccccc4c3Oc3ncn(CCCn4ccnc4)c(=N)c32)cc1OC (centres undefined)	22.0606
CN(N=O)C1=C(NC2CCCCC2)C(=O)c2ccccc2C1=O	32.2
COc1ccc(CN2CCCC(C(=O)c3ccc(C(F)(F)F)cc3)C2)c(O)c1 (centres undefined)	43.708
O=C(NC1CCCCC1)C(c1cccs1)N(CCc1ccccc1)C(=O)c1ccco1 (centres undefined)	7.269
CC(Oc1ccc(NC(=O)c2cccs2)cc1)C(=O)c1ccc(Cl)cc1 (centres undefined)	16.818
Brc1ccc(Nc2nc3ccccc3nc2Nc2ccc(Br)cc2)cc1	6.7896
Nc1ccc(-c2nc3cc(Cc4ccc5[nH]c(-c6ccc(N)cc6)nc5c4)ccc3[nH]2)cc1	9.5548
COc1ccc(-c2cn3c(C(=O)Nc4ccccc4Cl)c(-c4ccccc4)c4c3n2CCCC4)cc1	1.628
Cc1cc(Nc2ccc(OCc3ccccc3)cc2)nc2cc(O)ccc12	36.4644
CCN(CC)CCNc1ccnc2cc3ccccc3cc12.O=P(O)(O)O	12.0652
N=c1c2ccccc2nnn1-c1cccc(C(F)(F)F)c1	20.848
COc1cc(-c2nc(-c3ccc(Sc4ccccc4)cc3)c(-c3ccccc3)[nH]2)cc(OC)c1O	10.5558
OC(Cn1nnc2ccccc21)Cn1c2ccc(Br)cc2c2cc(Br)ccc21 (centres undefined)	11.39
Cc1ccc(C)c(Cn2c(N3CCC(C(=O)NCc4cccs4)CC3)nc3ccccc32)c1	5.2598
Cc1ccccc1OCCSc1nc2ccc(NC(=O)c3cccs3)cc2s1	6.631

SMILES	Growth Inhibition [%]
CCOc1cc2c(cc1OCC)C(c1cc(Cl)ccc1O)NCC2 (centres undefined)	24.0914
CCN(CC)CCCNc1ccnc2cc3ccccc3cc12	22.6902
O=C(Nc1ccc(-c2nc3cc4ccccc4cc3[nH]2)cc1)c1cccc(Br)c1	12.54
Cc1ccc(-c2nc3ccccc3o2)cc1NCc1cc(Cc2ccccc2)ccc1O	21.1902
COc1ccc(C(O)(CCC(C)C)C(CN2CCOCC2)c2ccc(Cl)cc2)cc1.Cl (centres undefined)	9.238
O=C(Cc1ccccc1)NC(c1ccc(Cl)cc1)c1c(O)ccc2ccccc12 (centres undefined)	13.3694
c1ccc(CNc2nc(Nc3ccccc3)nc3ccccc23)cc1	12.3006
COc1ccc(C(=O)NC(c2ccccc2Cl)c2cc(Cl)c3cccnc3c2O)cc1 (centres undefined)	27.7302
Cc1cccc(N2C(=O)C3C(C2=O)C2(c4ccccc4)C(=O)C3(c3ccccc3)C(c3ccc4c(c3)OCO4)=C2c2ccc3c(c2)OCO3)c1 (centres undefined)	6.488
Cc1ccc(F)cc1NC(=O)c1cc(Cl)ccc1Nc1ccccc1	10.2234
CCCCCCc1cc2cc(-c3nc4ccccc4[nH]3)c(=Nc3ccccc3C)oc2cc1O	18.3094
CCCCCCC(O)(c1ccc(F)cc1)C(CN1CCOCC1)c1ccccc1.Cl (centres undefined)	-0.4664
COc1cc(OC)cc(N2C(=O)N(Cc3ccc(C(C)(C)C)cc3)c3ccccc3S2(=O)=O)c1	5.995
CCOc1c(Br)cc(C2C(C(=O)OC)=CN(C)C=C2C(=O)OC)cc1OC	11.9416
COc1ccc2sc(N(Cc3cccnc3)C(=O)c3ccc(C#N)cc3)nc2c1	-6.4226
CCOC(=O)c1c[nH]c2c(CC)cccc2c1=O	3.164
CCCCc1c(CCC)c(=N)c2ccccc2n1C.I	1.3375
